Source: patent US20170327598A1, “SINGLE DOMAIN ANTIBODIES DIRECTED AGAINST INTRACELLULAR ANTIGENS” (SINGH MOLECULAR MEDICINE, LLC, priority 2014, published 2017)
“And” between values parts separate entries of the source, which are not always exact repeats. Equal entries are not always repeated.

Legend:
[1] = tested on: HT1080 cells; test: Anti-proliferative effect, HT1080 cells; type: cell-based; settings: for Absorbance ± S.E.: 72 hr
[2] = tested on: SJSA cells; test: Anti-proliferative effect, SJSA cells; type: cell-based; settings: for Absorbance ± S.E.: 72 hr
[3] = tested on: MDA-MB 231 cells; test: Internalization of sdAb, anti-His tag staining, MDA-MB 231; type: cell-based; settings: 18 hours
Experimental: (§1) An anti-HIV-1 Reverse Transcriptase (RT) sdAb was used as a negative control.
(§2) The slides were incubated for 18 hours after sdAb addition. The chambers were briefly rinsed with media and fixed in ice-cold methanol for 5-10 min. The chambers were then dried and stained with a fluorescent anti-His tag antibody (1:200)(Novus Biologicals, Littleton, Colo.) for 45 min at room temperature. The slides were rinsed in PBS for 5 minutes and mounted.

[4] = tested on: PANC-1 cells; test: Internalization of sdAb, anti-His tag staining, PANC-1; type: cell-based; settings: 18 hours
Experimental: as §1, §2

[5] = tested on: STAT3 reporter, induction by interleukin-6; test: STAT3 reporter GloResponse SIE-luc2P/HEK293 cell assay, IL-6 induction; type: cell-based; settings: for decrease in RLU: highest concentration;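 for all read-outs here: IL-6 added at 40 ng/mL (EC80) for roughly one day after pretreatment, luciferase luminescence read with Bio-Glo reagent, untreated +IL6 wells serve as control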
[6] = tested on: VEGF-A production in ARPE-19 cells; test: VEGF-A ELISA in ARPE-19 retinal cells, Experiment 1; type: cell-based, human; settings: for Mean (pg VEGF-A per mL): mean of Adj. Result, Wells 1-3; for Mean (pg VEGF-A per μg protein): mean of Wells 1-3; for % Control: normalized for protein; for Adj. Result (pg VEGF-A per mL) / Result (pg VEGF-A per mL): 72 Hr; for Adj. Result (pg VEGF-A per mL): per well, adjusted for dilution; for Result (pg VEGF-A per mL): single reads, higher than top of standard curve
[7] = tested on: PANC-1 xenograft; test: PANC-1 xenograft, sdAb alone, Gemcitabine alone or combination, Example 19; settings: SBT-100 5 mg/kg BID, Gemcitabine 20 mg/kg, or both
[8] = 24 Hour Treatment Prior to IL6 Induction, high conc.: VHH13 55.8 μg/mL, VHH14 84.3 μg/mL, BB1608 4.16 μM, VHH69 50.5 μg/mL
[9] = 24 Hour Treatment Prior to IL6 Induction, low conc.: VHH13, VHH14, VHH69 10 μg/mL, BB1608 2 μM
[10] = 48 Hour Treatment Prior to IL6 Induction, high conc.: VHH13 55.8 μg/mL, VHH14 84.3 μg/mL, BB1608 4.16 μM, VHH69 50.5 μg/mL
[11] = 48 Hour Treatment Prior to IL6 Induction, low conc.: VHH13, VHH14, VHH69 10 μg/mL, BB1608 2 μM

Anti-STAT3 VHH13: anti-STAT3 single domain antibody, SEQ ID NO:3; bacterially produced form referred to as SBT-100
Absorbance ± S.E. ([1]; 25 μg/ml): 1.09 ± 0.01
Absorbance ± S.E. ([1]; 50 μg/ml): 0.42 ± 0.04
Absorbance ± S.E. ([1]; 100 μg/ml): 0.27 ± 0.01
Absorbance ± S.E. ([1]; 200 μg/ml): 0.22 ± 0.02
IC50 ([1]; HT1080 cells): 33 µg/mL
Absorbance ± S.E. ([2]; 25 μg/ml): 1.36 ± 0.09
Absorbance ± S.E. ([2]; 50 μg/ml): 0.90 ± 0.04
Absorbance ± S.E. ([2]; 100 μg/ml): 0.27 ± 0.01
Absorbance ± S.E. ([2]; 200 μg/ml): 0.26 ± 0.01
IC50 ([2]; SJSA cells): 51 µg/mL
internalization, anti-His tag staining [3]: positive cytoplasmic staining
internalization, anti-His tag staining [4]: positive cytoplasmic staining
Average RLU [5, 8]: 11498 RLU
Average RLU with Media Blank [5, 8]: 11473 RLU
Luminescence (RLU), single wells [5, 8]: 10992 RLU and 11445 RLU and 12058 RLU
Average RLU [5, 9]: 175275 RLU
Average RLU with Media Blank [5, 9]: 175249 RLU
Luminescence (RLU), single wells [5, 9]: 164397 RLU and 169890 RLU and 191537 RLU
Average RLU [5, 10]: 89 RLU
Average RLU with Media Blank [5, 10]: 57 RLU
Luminescence (RLU), single wells [5, 10]: 104 RLU and 96 RLU
Average RLU [5, 11]: 182218 RLU
Average RLU with Media Blank [5, 11]: 182185 RLU
Luminescence (RLU), single wells [5, 11]: 168740 RLU and 188307 RLU and 189606 RLU
effect on IL-6 induction of STAT3 reporter ([5]; 24 hours and 48 hours treatment prior to IL-6): Inhibition of IL-6
decrease in RLU ([5]; 24 hours): greater than 10 fold
decrease in RLU ([5]; 48 hours): greater than 1,000 fold
% Negative Control ([6]; 0.1 μg/well, 24 Hr): 71.1%
Mean (pg VEGF-A per mL) ([6]; 0.1 μg/well, 24 Hr): 2060 pg VEGF-A per mL
Mean (pg VEGF-A per μg protein) ([6]; 0.1 μg/well, 24 Hr): 66 pg VEGF-A per μg protein
% Control ([6]; 0.1 μg/well, 24 Hr): 76.8%
Adj. Result (pg VEGF-A per mL) ([6]; 0.1 μg/well): >12,000 pg VEGF-A per mL
Result (pg VEGF-A per mL) ([6]; 0.1 μg/well): >6,000 pg VEGF-A per mL
Mean (pg VEGF-A per mL) ([6]; 0.5 μg/well, 24 Hr): 2664 pg VEGF-A per mL
Mean (pg VEGF-A per μg protein) ([6]; 0.5 μg/well, 24 Hr): 99 pg VEGF-A per μg protein
% Control ([6]; 0.5 μg/well, 24 Hr): 115.8%
Adj. Result (pg VEGF-A per mL) ([6]; 0.5 μg/well): >12,000 pg VEGF-A per mL
Result (pg VEGF-A per mL) ([6]; 0.5 μg/well): >6,000 pg VEGF-A per mL
TUMOR VOLUMES (mm^3) Mean ([7]; Day 1): 107.34 mm^3
TUMOR VOLUMES (mm^3) Mean ([7]; Day 5): 145.86 mm^3
TUMOR VOLUMES (mm^3) Mean ([7]; Day 8): 149.12 mm^3
% INHIBITION OF CONTROL (tumor growth) ([7]; Day 12): 20.70%
TUMOR VOLUMES (mm^3) Mean ([7]; Day 12): 188.78 mm^3
TUMOR VOLUMES (mm^3) Mean ([7]; Day 15): 233.25 mm^3
% INHIBITION OF CONTROL (tumor growth) ([7]; Day 19): 18.37%
TUMOR VOLUMES (mm^3) Mean ([7]; Day 19): 332.68 mm^3
% INHIBITION OF CONTROL (tumor growth) ([7]; Day 22): 19.17%
TUMOR VOLUMES (mm^3) Mean ([7]; Day 22): 390.59 mm^3
